Results published in article PMC5711939, “The rumen microbiome: an underexplored resource for novel antimicrobial discovery” (NPJ Biofilms and Microbiomes, 2017).
Converted amounts (≈) assume the structure as drawn. Read-outs that look alike come from different tables or passages of the source. Ends that are not written are not given here.

What was measured:
[1] = system: A. baumanii; test: microbe, parasite or virus in culture; settings: Acinetobacter baumannii, strain Q12-0867; Sensitive; cation adjusted MHB, 18–24 h
Procedure: (§1) Peptides dissolved in sterile distilled water and comparator antibiotics dissolved in the appropriate solvents[38] were added to sterile U-bottom polypropylene 96-well microplates at desired concentrations.

[2] = system: C. jejuni; test: microbe, parasite or virus in culture
Procedure: as §1

[3] = system: Ent. faecalis JH2-2; test: microbe, parasite or virus in culture
Procedure: as §1

[4] = system: K. pneumoniae; test: microbe, parasite or virus in culture
Procedure: as §1

[5] = system: List. monocytogenes NCTC 11994; test: microbe, parasite or virus in culture
Procedure: as §1

[6] = system: P. aeruginosa (CF); test: microbe, parasite or virus in culture; settings: Pseudomonas aeruginosa, cation adjusted MHB, 18–24 h
Procedure: as §1

[7] = system: S. aureus; test: microbe, parasite or virus in culture
Procedure: as §1

[8] = system: Sal. typhimurium SL1344; test: microbe, parasite or virus in culture
Procedure: as §1

[9] = system: E. coli K12; test: MIC, broth microdilution; assay type: cell-based, Escherichia coli; settings: strain K12, cation adjusted MHB, 18–24 h
Procedure: as §1

[10] = system: E. coli K12; test: Time kill kinetics; assay type: cell-based, Escherichia coli; settings: at 3 h
Procedure: Assessment of the bactericidal activity of peptides and comparator antibiotics was performed as previously described[39] using exponential-phase cultures of pathogens grown in MHB ([…]). Peptides were added at concentrations 3 times their MIC values. Experiments were performed in quadruplicates, and CFU/ml was calculated at different time points after over overnight incubation.

[11] = system: HUVEC and HepG2 cells; settings: HUVEC and HepG2 cells (cell line not given)
Procedure: Cytotoxic activity of the identified peptides was determined using HUVEC and HEPG2 cells as described previously.[41],[42] […] Significant responses were defined when observed cell growth was ≤50% and tube length was ≤70% using the proliferation and tube formation assays respectively. Permeabilization of eukaryotic membrane by Lynronne-1, Lynronne-2 and Lynronne-3 was also investigated using HepG2 cells as described previously.[43]

[12] = system: S. aureus MRSA ATCC 33591; test: Neutropenic mouse MRSA thigh infection model; assay type: in vivo, Staphylococcus aureus; settings: neutropenic male ICR mice; 10 mg/kg IV administered twice; significant (P < 0.001)
Procedure: In the thigh infection model, using neutropenic mice,[25] groups of five male ICR mice weighing 22 ± 2 g were inoculated intramuscularly (IM) with S. aureus MRSA, ATCC 33591 (1.57 × 10^5 CFU/mouse (0.1 ml/thigh)) in the right thigh. Lynronne-1, Lynronne-2 and Lynronne-3 at 10 mg/kg were intravenously (IV) administered once 2 h post infection or twice 2 and 8 h post-infection. The reference substance, vancomycin, was also intravenously injected 2 and 8 h post-infection at 10 and 30 mg/kg. Test animals were sacrificed 26 h after inoculation and the infected thighs were excised and the bacterial burden (CFU/gram) was determined.

[13] = system: C. coli
Procedure: as §1

[14] = Listeria monocytogenes, NCTC11994
[15] = Salmonella enterica, TYPHIMURIUM
[16] = Escherichia coli, read-out: MIC

## O=C(O)c1cn(C2CC2)c2cc(N3CCNCC3)c(F)cc2c1=O [Cip, Ciprofloxacin, reference compound]
[1]
  MIC: 0.25 µg/mL (≈ 0.754 µM)
[2]; Campylobacter jejuni, ATCC33292
  MIC: 0.12 µg/mL (≈ 0.362 µM)
[2]; Campylobacter jejuni, NCTC11161
  MIC: 0.5 µg/mL (≈ 1.51 µM)
[3]; Enterococcus faecalis, JH22
  MIC: 64 µg/mL (≈ 193 µM)
[4]; Klebsiella pneumoniae, ATCC700603, strain ATCC 700603, SHV-18, cation adjusted MHB, 18–24 h
  MIC: 0.25 µg/mL (≈ 0.754 µM)
[4]; Klebsiella pneumoniae, NCTC13442, strain NCTC 13442, OXA-48, cation adjusted MHB, 18–24 h
  MIC: 1 µg/mL (≈ 3.02 µM)
[4]; Klebsiella pneumoniae, strain ID not given, Sensitive, cation adjusted MHB, 18–24 h
  MIC: 0.03 µg/mL (≈ 0.0905 µM)
[4]; Klebsiella pneumoniae, strain Q14-0285, VIM, cation adjusted MHB, 18–24 h
  MIC: 32 µg/mL (≈ 96.6 µM)
[5]; [14]
  MIC: 64 µg/mL (≈ 193 µM)
[6]; ATCC27853, strain ATCC 27853, Sensitive
  MIC: 0.25 µg/mL (≈ 0.754 µM)
[6]; strain PA01
  MIC: 0.5 µg/mL (≈ 1.51 µM)
[6]; strain Q12-0535, Sensitive
  MIC: 0.06 µg/mL (≈ 0.181 µM)
[6]; strain Q12-0581, IMI, MER
  MIC: 2 µg/mL (≈ 6.04 µM)
[6]; strain Q12-0758, CAZ, IMI, MER
  MIC: 2 µg/mL (≈ 6.04 µM)
[6]; strain Q14-0208, CAZ, IMI, MER
  MIC: 4 µg/mL (≈ 12.1 µM)
[6]; strain Q14-0890, CAZ, IMI, MER
  MIC: 4 µg/mL (≈ 12.1 µM)
[7]; Staphylococcus aureus
  MIC: > 256 µg/mL
[7]; Staphylococcus aureus, ATCC29213, strain ATCC 29213, Sensitive, cation adjusted MHB, 18–24 h
  MIC: 0.25 µg/mL (≈ 0.754 µM)
[7]; Staphylococcus aureus, MRSA, strain EMRSA-15, resistances MRSA, Cip, cation adjusted MHB, 5 × 10^5 CFU/ml, 18–24 h
  MIC: > 256 µg/mL
[7]; Staphylococcus aureus, MRSA, strain Q14-0320, cation adjusted MHB, 18–24 h
  MIC: 64 µg/mL (≈ 193 µM)
[7]; Staphylococcus aureus, MRSA, strain Q14-0325, cation adjusted MHB, 18–24 h
  MIC: 0.25 µg/mL (≈ 0.754 µM)
[7]; Staphylococcus aureus, MRSA, strain Q14-0352, cation adjusted MHB, 18–24 h
  MIC: 0.5 µg/mL (≈ 1.51 µM)
[7]; Staphylococcus aureus, MRSA, strain Q14-0390, cation adjusted MHB, 18–24 h
  MIC: 64 µg/mL (≈ 193 µM)
[7]; Staphylococcus aureus, MRSA|NCTC12493, strain NCTC 12493, MRSA, cation adjusted MHB, 18–24 h
  MIC: 0.25 µg/mL (≈ 0.754 µM)
[8]; [15]
  MIC: 0.12 µg/mL (≈ 0.362 µM)
[9]; [16]
  MIC: 0.06 µg/mL (≈ 0.181 µM)
[10]
  Bactericidal activity (reduction in viable count): > 4 log10 CFU/ml

## C[C@H]1COc2c(N3CCN(C)CC3)c(F)cc3c(=O)c(C(=O)O)cn1c23 [Lev, Levofloxacin, reference compound]
[6]; strain AMT0060
  MIC: 0.06 µg/mL (≈ 0.166 µM)
[6]; strain C3719
  MIC: < 0.03 µg/mL
[6]; strain LESB58
  MIC: 0.06 µg/mL (≈ 0.166 µM)

## C/C(=C\C(=O)OCCCCCCCCC(=O)O)C[C@@H]1OC[C@H](C[C@@H]2O[C@H]2[C@@H](C)[C@H](C)O)[C@@H](O)[C@H]1O [Mup, Mupirocin, reference compound]
[7]; Staphylococcus aureus, BAA1717|MRSA|USA300, strain USA300 BAA-1717, MRSA, cation adjusted MHB, 18–24 h
  MIC: 0.12 µg/mL (≈ 0.24 µM)

## CN[C@@H]1C[C@H]2O[C@@](C)([C@@H]1OC)n1c3ccccc3c3c4c(c5c6ccccc6n2c5c31)C(=O)NC4 [Staurosporine, reference compound]
[11]
  50% lethal concentration (LC50): 0.014 µg/mL

## CN[C@H](CC(C)C)C(=O)N[C@H]1C(=O)N[C@@H](CC(N)=O)C(=O)N[C@H]2C(=O)N[C@H]3C(=O)N[C@H](C(=O)N[C@H](C(=O)O)c4cc(O)cc(O)c4-c4cc3ccc4O)[C@H](O)c3ccc(c(Cl)c3)Oc3cc2cc(c3O[C@@H]2O[C@H](CO)[C@@H](O)[C@H](O)[C@H]2O[C@H]2C[C@](C)(N)[C@H](O)[C@H](C)O2)Oc2ccc(cc2Cl)[C@H]1O [Van, Vancomycin, reference compound]
[3]; Enterococcus faecalis, JH22
  MIC: 64 µg/mL (≈ 44.2 µM)
[5]; [14]
  MIC: 64 µg/mL (≈ 44.2 µM)
[7]; Staphylococcus aureus
  MIC: 1 µg/mL (≈ 0.69 µM)
[7]; Staphylococcus aureus, ATCC33591 / MRSA
  MIC: 2 µg/mL (≈ 1.38 µM)
[7]; Staphylococcus aureus, BAA1717 / MRSA / USA300
  MIC: 2 µg/mL (≈ 1.38 µM)
[7]; Staphylococcus aureus, MRSA
  MIC: 2 µg/mL (≈ 1.38 µM)
[8]; [15]
  MIC: 256 µg/mL (≈ 177 µM)
[9]; [16]
  MIC: 128 µg/mL (≈ 88.3 µM)
[12]
  Reduction in colony counts: < 2 log

## AWRWKAFRNCWRVRSSSL-NH2 [P8]
[2]
  MIC: >128 µg/mL
[3]
  MIC: 64 µg/mL
[5]; NCTC 11994
  MIC: 64 µg/mL
[7]; strain RN4220, Sensitive, cation adjusted MHB, 18–24 h
  MIC: 64 µg/mL
[8]
  MIC: 32 µg/mL
[13]
  MIC: >128 µg/mL
[9]
  MIC: 64 µg/mL

## GTAWRWHYRARS-NH2 [P15a]
[2]
  MIC: 128 µg/mL
[4]
  MIC: >128 µg/mL
[7]
  MIC: >128 µg/mL
[13]
  MIC: 128 µg/mL
